Results reported in EPA's ToxValDB 9.5.

Tested on: Rattus norvegicus
Details: short-term, duration: 28 days, oral, gavage, Sprague-Dawley

Work on `O=C(O)C(F)(F)C(F)(F)C(F)(F)C(F)(F)C(F)(F)C(F)(F)C(F)(F)F` [Perfluorooctanoic acid] yielded an LOEL (F, Clinical chemistry_Alanine aminotransferase) of 50 mg/kg-day, an LOEL (F, Clinical chemistry_Albumin) of 25 mg/kg-day and an LOEL (F, Clinical chemistry_Albumin/globulin ratio) of 12.5 mg/kg-day. It also gave an LOEL (F, Clinical chemistry_Alkaline phosphatase) of 6.25 mg/kg-day, an NOEL (F, Clinical chemistry_Aspartate aminotransferase) of 100 mg/kg-day and an LOEL (F, Clinical chemistry_Cholesterol) of 50 mg/kg-day. It also gave an NOEL (F, Clinical chemistry_Creatinine kinase) of 100 mg/kg-day, an NOEL (F, Clinical chemistry_Direct bilirubin) of 100 mg/kg-day and an LOEL (F, Clinical chemistry_Free thyroxine) of 100 mg/kg-day. It also gave an LOEL (F, Clinical chemistry_Globulin) of 12.5 mg/kg-day, an NOEL (F, Clinical chemistry_Indirect bilirubin) of 100 mg/kg-day and an NOEL (F, Clinical chemistry_Sorbitol dehydrogenase) of 100 mg/kg-day. It also gave an NOEL (F, Clinical chemistry_Testosterone) of 100 mg/kg-day, an LOEL (F, Clinical chemistry_Thyroid stimulating hormone) of 6.25 mg/kg-day and an NOEL (F, Clinical chemistry_Total bile acids) of 100 mg/kg-day. It also gave an NOEL (F, Clinical chemistry_Total bilirubin) of 100 mg/kg-day, an NOEL (F, Clinical chemistry_Total protein) of 100 mg/kg-day and an LOEL (F, Clinical chemistry_Total thyroxine) of 100 mg/kg-day. It also gave an NOEL (F, Clinical chemistry_Total triiodothyronine) of 100 mg/kg-day, an LOEL (F, Clinical chemistry_Triglycerides) of 50 mg/kg-day and an LOEL (F, Gene expression_Acox1) of 12.5 mg/kg-day. It also gave an LOEL (F, Gene expression_Cyp2b1) of 6.25 mg/kg-day, an LOEL (F, Gene expression_Cyp2b2) of 6.25 mg/kg-day and an LOEL (F, Gene expression_Cyp4a1) of 25 mg/kg-day. It also gave an LOEL (F, Hematology_Erythrocytes) of 12.5 mg/kg-day, an LOEL (F, Hematology_Hematocrit) of 12.5 mg/kg-day and an LOEL (F, Hematology_Hemoglobin) of 12.5 mg/kg-day. It also gave an NOEL (F, Hematology_Mean corpuscular hemoglobin concentration) of 100 mg/kg-day, an NOEL (F, Hematology_Mean corpuscular volume) of 100 mg/kg-day and an NOEL (F, Hematology_Platelets) of 100 mg/kg-day. It also gave an NOEL (F, Hematology_Reticulocytes) of 100 mg/kg-day, an NOEL (F, Nonneoplastic effects_Bone marrow - Hypocellularity) of 100 mg/kg-day and an NOEL (F, Nonneoplastic effects_Forestomach - Epithelium, hyperplasia) of 100 mg/kg-day. The NOEL (F, Nonneoplastic effects_Forestomach - Inflammation, chronic active) was 100 mg/kg-day, the NOEL (F, Nonneoplastic effects_Kidney - Nephropathy, chronic progressive) was 100 mg/kg-day and the NOEL (F, Nonneoplastic effects_Liver - Hepatocyte, Necrosis) was 100 mg/kg-day. The LOEL (F, Nonneoplastic effects_Liver - Hepatocyte, cytoplasmic alteration) was 25 mg/kg-day, the LOEL (F, Nonneoplastic effects_Liver - Hepatocyte, hypertrophy) was 100 mg/kg-day and the NOEL (F, Nonneoplastic effects_Liver - Hepatocyte, vacuolization cytoplasmic) was 100 mg/kg-day. It also gave an NOEL (F, Nonneoplastic effects_Lymph nodes - Mandibular, atrophy) of 100 mg/kg-day, an NOEL (F, Nonneoplastic effects_Lymph nodes - Mesenteric, atrophy) of 100 mg/kg-day and an LOEL (F, Nonneoplastic effects_Nose - Olfactory epithelium, degeneration) of 50 mg/kg-day. The LOEL (F, Nonneoplastic effects_Nose - Olfactory epithelium, hyperplasia) was 50 mg/kg-day, the LOEL (F, Nonneoplastic effects_Nose - Olfactory epithelium, inflammation, suppurative) was 100 mg/kg-day and the LOEL (F, Nonneoplastic effects_Nose - Respiratory epithelium, hyperplasia) was 12.5 mg/kg-day. For the same molecule, the LOEL (F, Nonneoplastic effects_Nose - Respiratory epithelium, inflammation, chronic active) was 12.5 mg/kg-day, the NOEL (F, Nonneoplastic effects_Spleen - Atrophy) was 100 mg/kg-day and the NOEL (F, Nonneoplastic effects_Spleen - Extramedullary hematopoiesis, increased) was 100 mg/kg-day. The NOEL (F, Nonneoplastic effects_Thymus - Atrophy) was 100 mg/kg-day, the NOEL (F, Nonneoplastic effects_Thymus - Lymphocyte, apoptosis) was 100 mg/kg-day and the LOEL (F, Nonneoplastic effects_Thyroid gland - Follicular cell hypertrophy) was 100 mg/kg-day. The LOEL (F, Organ weights_Liver - Absolute) was 25 mg/kg-day, the LOEL (F, Organ weights_Liver - Relative) was 25 mg/kg-day and the NOEL (F, Organ weights_R. adrenal gland - Absolute) was 100 mg/kg-day. It also gave an NOEL (F, Organ weights_R. adrenal gland - Relative) of 100 mg/kg-day, an LOEL (F, Organ weights_R. kidney - Absolute) of 100 mg/kg-day and an LOEL (F, Organ weights_R. kidney - Relative) of 50 mg/kg-day. For the same molecule, the NOEL (F, Organ weights_Spleen - Absolute) was 100 mg/kg-day, the NOEL (F, Organ weights_Spleen - Relative) was 100 mg/kg-day and the NOEL (F, Organ weights_Thymus - Absolute) was 100 mg/kg-day. It also gave an NOEL (F, Organ weights_Thymus - Relative) of 100 mg/kg-day, an NOEL (F, Organ weights_Thyroid gland - Absolute) of 100 mg/kg-day and an NOEL (F, Organ weights_Thyroid gland - Relative) of 100 mg/kg-day. The LOEL (F, Reproductive toxicity_Altered estrous cyclicity) was 100 mg/kg-day, the NOEL (F, Survival rates) was 100 mg/kg-day and the NOEL (F, body weight) was 100 mg/kg-day. The LOEL (M, Clinical chemistry_Alanine aminotransferase) was 0.625 mg/kg-day, the NOEL (M, Clinical chemistry_Albumin) was 10 mg/kg-day and the LOEL (M, Clinical chemistry_Albumin/globulin ratio) was 0.625 mg/kg-day. It also gave an LOEL (M, Clinical chemistry_Alkaline phosphatase) of 0.625 mg/kg-day, an LOEL (M, Clinical chemistry_Aspartate aminotransferase) of 2.5 mg/kg-day and an LOEL (M, Clinical chemistry_Cholesterol) of 0.625 mg/kg-day. The LOEL (M, Clinical chemistry_Creatinine kinase) was 2.5 mg/kg-day, the LOEL (M, Clinical chemistry_Direct bilirubin) was 10 mg/kg-day and the LOEL (M, Clinical chemistry_Free thyroxine) was 0.625 mg/kg-day. For the same molecule, the LOEL (M, Clinical chemistry_Globulin) was 0.625 mg/kg-day, the NOEL (M, Clinical chemistry_Sorbitol dehydrogenase) was 10 mg/kg-day and the NOEL (M, Clinical chemistry_Testosterone) was 10 mg/kg-day. It also gave an LOEL (M, Clinical chemistry_Thyroid stimulating hormone) of 5 mg/kg-day, an LOEL (M, Clinical chemistry_Total bile acids) of 5 mg/kg-day and an LOEL (M, Clinical chemistry_Total protein) of 0.625 mg/kg-day. The LOEL (M, Clinical chemistry_Total thyroxine) was 0.625 mg/kg-day, the LOEL (M, Clinical chemistry_Total triiodothyronine) was 0.625 mg/kg-day and the LOEL (M, Clinical chemistry_Triglycerides) was 0.625 mg/kg-day. The LOEL (M, Gene expression_Acox1) was 0.625 mg/kg-day, the LOEL (M, Gene expression_Acyl-CoA oxidase) was 0.625 mg/kg-day and the LOEL (M, Gene expression_Cyp2b1) was 0.625 mg/kg-day. For the same molecule, the LOEL (M, Gene expression_Cyp2b2) was 0.625 mg/kg-day, the LOEL (M, Gene expression_Cyp4a1) was 0.625 mg/kg-day and the LOEL (M, Hematology_Erythrocytes) was 1.25 mg/kg-day. It also gave an LOEL (M, Hematology_Hematocrit) of 1.25 mg/kg-day, an LOEL (M, Hematology_Hemoglobin) of 1.25 mg/kg-day and an NOEL (M, Hematology_Mean corpuscular hemoglobin concentration) of 10 mg/kg-day. The LOEL (M, Hematology_Mean corpuscular volume) was 10 mg/kg-day, the NOEL (M, Hematology_Platelets) was 10 mg/kg-day and the LOEL (M, Hematology_Reticulocytes) was 0.625 mg/kg-day. It also gave an LOEL (M, Nonneoplastic effects_Bone marrow - Hypocellularity) of 10 mg/kg-day, an NOEL (M, Nonneoplastic effects_Epididymis - Duct, exfoliated germ cell) of 10 mg/kg-day and an NOEL (M, Nonneoplastic effects_Epididymis - Epithelium, apoptosis) of 10 mg/kg-day. The NOEL (M, Nonneoplastic effects_Epididymis - Hypospermia) was 10 mg/kg-day, the NOEL (M, Nonneoplastic effects_Forestomach - Epithelium, hyperplasia) was 10 mg/kg-day and the NOEL (M, Nonneoplastic effects_Forestomach - Inflammation, chronic active) was 10 mg/kg-day. For the same molecule, the NOEL (M, Nonneoplastic effects_Kidney - Nephropathy, chronic progressive) was 10 mg/kg-day, the NOEL (M, Nonneoplastic effects_Liver - Hepatocyte, Necrosis) was 10 mg/kg-day and the LOEL (M, Nonneoplastic effects_Liver - Hepatocyte, cytoplasmic alteration) was 0.625 mg/kg-day. For the same molecule, the LOEL (M, Nonneoplastic effects_Liver - Hepatocyte, hypertrophy) was 1.25 mg/kg-day, the NOEL (M, Nonneoplastic effects_Liver - Hepatocyte, vacuolization cytoplasmic) was 10 mg/kg-day and the NOEL (M, Nonneoplastic effects_Lymph nodes - Mandibular, atrophy) was 10 mg/kg-day. It also gave an NOEL (M, Nonneoplastic effects_Lymph nodes - Mesenteric, atrophy) of 10 mg/kg-day, an NOEL (M, Nonneoplastic effects_Nose - Olfactory epithelium, degeneration) of 10 mg/kg-day and an NOEL (M, Nonneoplastic effects_Nose - Olfactory epithelium, hyperplasia) of 10 mg/kg-day. For the same molecule, the NOEL (M, Nonneoplastic effects_Nose - Olfactory epithelium, inflammation, suppurative) was 10 mg/kg-day, the LOEL (M, Nonneoplastic effects_Nose - Respiratory epithelium, hyperplasia) was 0.625 mg/kg-day and the LOEL (M, Nonneoplastic effects_Nose - Respiratory epithelium, inflammation, chronic active) was 0.625 mg/kg-day. For the same molecule, the NOEL (M, Nonneoplastic effects_Spleen - Atrophy) was 10 mg/kg-day, the NOEL (M, Nonneoplastic effects_Spleen - Extramedullary hematopoiesis, increased) was 10 mg/kg-day and the NOEL (M, Nonneoplastic effects_Testes - Germinal epithelium, degeneration) was 10 mg/kg-day. It also gave an NOEL (M, Nonneoplastic effects_Testes - Interstitial cell, atrophy) of 10 mg/kg-day, an NOEL (M, Nonneoplastic effects_Testes - Seminiferous tubule, spermatid retention) of 10 mg/kg-day and an NOEL (M, Nonneoplastic effects_Thymus - Atrophy) of 10 mg/kg-day. It also gave an NOEL (M, Nonneoplastic effects_Thymus - Lymphocyte, apoptosis) of 10 mg/kg-day, an LOEL (M, Nonneoplastic effects_Thyroid gland - Follicular cell hypertrophy) of 10 mg/kg-day and an LOEL (M, Organ weights_Liver - Absolute) of 0.625 mg/kg-day. The LOEL (M, Organ weights_Liver - Relative) was 0.625 mg/kg-day, the NOEL (M, Organ weights_R. adrenal gland - Absolute) was 10 mg/kg-day and the NOEL (M, Organ weights_R. adrenal gland - Relative) was 10 mg/kg-day. For the same molecule, the LOEL (M, Organ weights_R. kidney - Absolute) was 1.25 mg/kg-day, the LOEL (M, Organ weights_R. kidney - Relative) was 0.625 mg/kg-day and the NOEL (M, Organ weights_R. testis - Absolute) was 10 mg/kg-day. It also gave an LOEL (M, Organ weights_Spleen - Absolute) of 2.5 mg/kg-day, an NOEL (M, Organ weights_Spleen - Relative) of 10 mg/kg-day and an LOEL (M, Organ weights_Thymus - Absolute) of 10 mg/kg-day. The NOEL (M, Organ weights_Thymus - Relative) was 10 mg/kg-day, the LOEL (M, Organ weights_Thyroid gland - Absolute) was 2.5 mg/kg-day and the LOEL (M, Organ weights_Thyroid gland - Relative) was 1.25 mg/kg-day. The LOEL (M, Reproductive toxicity_Altered sperm parameters) was 10 mg/kg-day, the NOEL (M, Survival rates) was 10 mg/kg-day and the LOEL (M, body weight) was 5 mg/kg-day.
